Measurements published in PubChem BioAssay AID248 (DTP/NCI, 2004).
Toxic doses and inconclusive results are not listed.

System: L1210 leukemia ip in BDF1 mice, survival T/C
Assay: NCI In Vivo Anticancer Drug Screen. Data for tumor model L1210 Leukemia (intraperitoneal) in B6D2F1 (BDF1) mice
Settings: endpoint: mean survival time, higher = longer survival
Summary of the method: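 Value reflects the ratio of survival in compound-treated mice to survival in vehicle-treated controls, with both groups carrying the same transplanted tumor.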

[1] = dose: 100.0 mg/kg/injection, schedule: Q01DX009 (ip), vehicle: Klucel (hydroxypropylcellulose) (HPC)
[2] = dose: 100.0 mg/kg/injection, schedule: Q04DX003 (ip), vehicle: Klucel (hydroxypropylcellulose) (HPC)
[3] = dose: 200.0 mg/kg/injection, schedule: Q01DX009 (ip), vehicle: Klucel (hydroxypropylcellulose) (HPC)
[4] = dose: 200.0 mg/kg/injection, schedule: Q04DX003 (ip), vehicle: Klucel (hydroxypropylcellulose) (HPC)
[5] = dose: 400.0 mg/kg/injection, schedule: Q01DX009 (ip), vehicle: Klucel (hydroxypropylcellulose) (HPC)
[6] = dose: 400.0 mg/kg/injection, schedule: Q04DX003 (ip), vehicle: Klucel (hydroxypropylcellulose) (HPC)
[7] = dose: 100.0 mg/kg/injection, schedule: Q01DX001 (ip), vehicle: saline

Compound: COc1ccc(NC(=O)Nc2ccc(C3=NCCCN3)cc2)cc1NC(=O)Nc1ccc(C2=NCCCN2)cc1
- T/C (dose: 62.0 mg/kg/injection, schedule: Q01DX Z (ip), vehicle: carboxymethylcellulose (CMC)): 115 % of control
- T/C (dose: 62.0 mg/kg/injection, schedule: Q01DX Z (oral), vehicle: carboxymethylcellulose (CMC)): 104 % of control
- T/C (dose: 125.0 mg/kg/injection, schedule: Q01DX Z (oral), vehicle: carboxymethylcellulose (CMC)): 98 % of control
- T/C (dose: 250.0 mg/kg/injection, schedule: Q01DX Z (ip), vehicle: carboxymethylcellulose (CMC)): 150 % of control
- T/C (dose: 250.0 mg/kg/injection, schedule: Q01DX Z (oral), vehicle: carboxymethylcellulose (CMC)): 104 % of control
- T/C (dose: 500.0 mg/kg/injection, schedule: Q01DX Z (oral), vehicle: carboxymethylcellulose (CMC)): 100 % of control

Compound: CCCNC(=S)NNC(=O)c1ccncc1
- T/C (dose: 100.0 mg/kg/injection, schedule: Q04DX002 (ip), vehicle: saline with Tween-80): 100 % of control
- T/C (dose: 200.0 mg/kg/injection, schedule: Q04DX002 (ip), vehicle: saline with Tween-80): 118 % of control

Compound: CC(=O)[OH2+].CC(=O)[OH2+].[O-]c1ccc2ccccc2c1CN1CCCCC1.[O-]c1ccc2ccccc2c1CN1CCCCC1.[O]=[U+2]=[O].[O]=[U+2]=[O]
- T/C (dose: 5.0 mg/kg/injection, schedule: Q01DX001 (ip), vehicle: other): 105 % of control
- T/C (dose: 10.0 mg/kg/injection, schedule: Q01DX001 (ip), vehicle: other): 111 % of control

Compound: COP(=O)(O)CC(C)=O (tested in a mixture with another compound)
- T/C (dose: 100.0 mg/kg/injection, schedule: Q04DX002 (ip), vehicle: saline): 101 % of control
- T/C (dose: 200.0 mg/kg/injection, schedule: Q04DX002 (ip), vehicle: saline): 101 % of control
- T/C (dose: 400.0 mg/kg/injection, schedule: Q04DX002 (ip), vehicle: saline): 101 % of control

Compound: O=C1CCCC/C1=C/c1ccc(Cl)cc1
- T/C [1]: 95 % of control
- T/C [2]: 103 % of control
- T/C [3]: 98 % of control
- T/C [4]: 106 % of control
- T/C [5]: 101 % of control
- T/C [6]: 105 % of control

Compound: CCC(=O)Nc1cccc(OC(=O)NCC(C)C)c1
- T/C (dose: 100.0 mg/kg/injection, schedule: Q01DX009 (ip), vehicle: saline with Tween-80): 92 % of control
- T/C (dose: 200.0 mg/kg/injection, schedule: Q01DX009 (ip), vehicle: saline with Tween-80): 94 % of control
- T/C (dose: 400.0 mg/kg/injection, schedule: Q01DX009 (ip), vehicle: saline with Tween-80): 91 % of control

Compound: COc1c2c(cc3c1OCO3)[C@@]13CCN(C2)[C@@H]1CC=C[C@H]3O
- T/C (dose: 5.0 mg/kg/injection, schedule: Q01DX001 (ip), vehicle: carboxymethylcellulose (CMC)): 105 % of control
- T/C (dose: 10.0 mg/kg/injection, schedule: Q01DX001 (ip), vehicle: carboxymethylcellulose (CMC)): 105 % of control

Compound: CCC[CH2][Sn]1([CH2]CCC)[O]C(=O)c2cccc([N+](=O)[O-])c2C(=O)[O]1
- T/C [7]: 117 % of control

Compound: COc1c(C(=O)Nc2ccc(C3=NCCN3)cc2)cccc1C(=O)Nc1ccc(C2=NCCN2)cc1
- T/C (dose: 15.0 mg/kg/injection, schedule: Q01DX Z (ip), vehicle: saline): 95 % of control
- T/C (dose: 30.0 mg/kg/injection, schedule: Q01DX Z (ip), vehicle: saline): 101 % of control

Compound: Cc1nc2nc(Cl)c(Cl)nc2[nH]1
- T/C (dose: 25.0 mg/kg/injection, schedule: Q04DX003 (ip), vehicle: saline with Tween-80): 92 % of control
- T/C (dose: 50.0 mg/kg/injection, schedule: Q04DX003 (ip), vehicle: saline with Tween-80): 97 % of control
- T/C [2]: 102 % of control
- T/C (dose: 100.0 mg/kg/injection, schedule: Q04DX003 (ip), vehicle: saline with Tween-80): 89 % of control

Compound: CCOC(=O)C(C)(C)O
- T/C [7]: 91 % of control
- T/C (dose: 200.0 mg/kg/injection, schedule: Q01DX001 (ip), vehicle: saline): 100 % of control
- T/C (dose: 400.0 mg/kg/injection, schedule: Q01DX001 (ip), vehicle: saline): 102 % of control

Compound: c1csc(C[N+]23CN4CN(CN(C4)C2)C3)c1
- T/C (dose: 100.0 mg/kg/injection, schedule: Q01DX009 (ip), vehicle: saline): 92 % of control
- T/C (dose: 200.0 mg/kg/injection, schedule: Q01DX009 (ip), vehicle: saline): 103 % of control
- T/C (dose: 400.0 mg/kg/injection, schedule: Q01DX009 (ip), vehicle: saline): 101 % of control

Compound: OCc1cc(-c2ccc(Cl)cc2)nc2c(C(F)(F)F)cccc12
- T/C [1]: 108 % of control
- T/C [2]: 102 % of control
- T/C [3]: 111 % of control
- T/C [4]: 104 % of control
- T/C [5]: 109 % of control
- T/C [6]: 102 % of control
